Reference: patent US9260382B2, “Methods of reducing virulence in bacteria” (priority 2010, dated 2016)
“Also recorded” adds a separate entry of the source.

Columns and labels:
rsmB RNA = assay: Northern blot analysis of rsmB RNA; format: cell-based, D. dadanti 3937; conditions: bacterial cells cultured in media supplemented with compound (FIG. 23)
Text: Northern blot analysis was used to quantify rsmB RNA of D. dadanti 3937.

hrpS promoter = assay: GFP reporter plasmid phrpS, flow cytometry of hrpS promoter activity; format: cell-based, Dickeya dadantii 3937; conditions: reporter plasmid phrpS
Experimental: FACS analysis of promoter activity of dspE, hrpA, hrpL, hrpN, and hrpS was carried out as described (Peng et al., 2006). Briefly, the wild-type Ech3937 and the mutant strains carrying the promoter reporter plasmid were grown on LB broth at 28° C. overnight and transferred to appropriate media. For FACS analysis, samples were collected by centrifugation, washed with 1× phosphate buffer saline (PBS) at 13,000 rpm for 1 min, and re-suspended in 1×PBS to ca 10^6 CFU/ml prior to being run in a FACS Calibur flow cytometer (BD Biosciences, CA). Three replicates were performed for each treatment.
To test for an inhibitory effect on T3SS hrpS expression, the reporter plasmid phrpS was used to measure the effects of these compounds on hrpA expression.

hrpA promoter (T3SS) [1] = assay: hrpA promoter-probe phrpA in Erwinia amylovora 273, flow cytometry; format: cell-based; conditions: Ea273 (phrpA), HIM + 100 μM compound
Procedure, shortened: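 Erwinia amylovora 273 carrying an hrpA promoter–GFP fusion (pPROBE-NT) was grown in hrp-inducing medium with 100 μM compound or DMSO. Promoter activity read as GFP intensity by flow cytometry at 6 h and 9 h.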

hrpA promoter (T3SS) [2] = assay: GFP reporter plasmid phrpA, flow cytometry (FACS) of hrpA promoter activity; format: cell-based, Dickeya dadantii 3937; conditions: for mean fluorescence intensity of GFP, hrpA expression: D. dadantii 3937 (phrpA), MM + 100 μM compound
Procedure, shortened: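 D. dadantii (Ech) 3937 carrying the phrpA promoter–GFP transcriptional fusion was grown in T3SS minimal medium with 100 μM compound, starting from an inoculum of OD600 1.0. GFP was read by flow cytometry at 12 and 24 h. Values are mean fluorescence intensity of three replicates ± SD, with compound-free MM as control.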

COc1ccc(/C=C/C(=O)NO)cc1 [Compound 125, trans-4-Methoxycinnamohydroxamic acid]
rsmB RNA level, Northern blot, in words (rsmB RNA): reduced rsmB mRNA
inhibitory effect on T3SS hrpS expression, in words (hrpS promoter): inhibited hrpS
Avg MFI ± SD, hrpA expression (hrpA promoter (T3SS) [1]; 6 h): 215.5 ± 6.5
Avg MFI ± SD, hrpA expression (hrpA promoter (T3SS) [1]; 9 h): 230.0 ± 4.4
mean fluorescence intensity of GFP, hrpA expression (hrpA promoter (T3SS) [2]; 12 h): 17.4 ± 0.9
mean fluorescence intensity of GFP, hrpA expression (hrpA promoter (T3SS) [2]; 24 h): 25.6 ± 2.0
inhibitory activity on T3SS gene (hrpA) expression, in words (hrpA promoter (T3SS) [2]; D. dadantii 3937, reporter plasmid phrpA, 100 μM): showed inhibitory effect; also recorded: potent inhibitory activity
minimal effective concentration (hrpA promoter (T3SS) [2]; Dickeya dadantii, read-out: minimal inhibitory concentration on hrpA expression (concentration showing inhibitory effect)): 100 µM
Mean Fluorescence Intensity of GFP (hrpA, phrpA) (hrpA promoter (T3SS) [2]; Trial 2, MM supplemented with compound at 100 μM): 25.9 ± 1.0
